One data set relates to Ebolavirus. The experiment in a line: microbe, parasite or virus in culture. Format: functional, cell-based. The following applies: Orthoebolavirus, HEK-293T.
In a further data set the test system is Marburgvirus. As to the kind of experiment: microbe, parasite or virus in culture. The conditions noted are these: Orthomarburgvirus, HEK-293T. Format: functional, organism-based.
The test system of data set [1] is Vesicular stomatitis virus. The experiment in a line: microbe, parasite or virus in culture. The conditions noted are these: HEK-293T. Format: functional, organism-based.
The nature of data set [2]: in vitro. The following applies: human, HEK293T cells.
A short description of data set [3]: in vitro. The conditions noted are these: human, HEK293T cells. This is another data set of the same source.
The nature of data set [4]: in vitro. The following applies: human, HEK293T cells. This is another data set of the same source.
For the next data set, the system named is HEK-293T. The experiment in a line: Inhibition of endosomal acidification in HEK293T cells at […] after 1 hr by LysoTracker Red dye-based confocal fluorescence microscopic analysis. Format: functional, cell-based. The following applies: Homo sapiens.

pEC50: −log10 of the molar value. The source made the active and inactive calls. The rule behind the calls is not given here.

The record followed here is ChEMBL document CHEMBL4196047, “Discovery and evolution of aloperine derivatives as novel anti-filovirus agents through targeting entry stage” (Eur J Med Chem, 2018).

One may read the pEC50 as the EC50 on a negative log10 scale, so that one unit is a factor of ten. A high value points to a low EC50. By CC50 is commonly meant the concentration giving 50% cytotoxicity. A high value points to better tolerance by the cells.

For `COc1cccc(CN2CCCC3=C[C@H]4C[C@H](CN5CCCC[C@H]45)[C@@H]32)c1`, the negative logarithm of the EC50 (pEC50) in the data set with Ebolavirus was 4.92; in the data set on Marburgvirus, 4.75; in data set [1], 4.23. The cytotoxic concentration (CC50) in the data set “in vitro [2]” is over 200 µM. Further, the selectivity ratio in “in vitro [3]” was over 16.5; in “in vitro [4]”, over 11.2.
On to `Clc1cc(Cl)cc(CN2CCCC3=C[C@H]4C[C@H](CN5CCCC[C@H]45)[C@@H]32)c1`, for which the pEC50 with Ebolavirus was 5.09; with Marburgvirus, 5.07; in data set [1], 4.46. In addition, the CC50 in the data set “in vitro [2]” came to 83.5 µM. Further, the results for the selectivity ratio in the data set “in vitro [3]” and in “in vitro [4]” were 10.3 and 9.8, respectively.
Consider `Clc1ccc(CN2CCCC3=C[C@H]4C[C@H](CN5CCCC[C@H]45)[C@@H]32)c(Cl)c1`, for which the pEC50 with Ebolavirus is 5.18; with Marburgvirus, 5.19; in data set [1] it was 4.97. For the same compound, the CC50 in “in vitro [2]” is over 200 µM. The selectivity ratio in “in vitro [3]” is over 30.3; in “in vitro [4]”, over 31.2.
On to `Cl.N`, for which, in the data set on HEK-293T, the inhibition entry was “Active”.
Regarding `Clc1ccc(CCN2CCCC3=C[C@H]4C[C@H](CN5CCCC[C@H]45)[C@@H]32)cc1Cl`, the pEC50 is 5.17 in the data set with Ebolavirus and 4.36 in data set [1]. The compound further came in with a 50% cytotoxic concentration (CC50) in the data set “in vitro [2]” of 51.5 µM. For the same compound, the selectivity ratio in “in vitro [3]” came to 7.6.
In the case of `Cc1ccccc1CN1CCCC2=C[C@H]3C[C@H](CN4CCCC[C@H]34)[C@@H]21`, the pEC50 with Ebolavirus is 4.78; with Marburgvirus, 4.82; in data set [1] it was 4.41. This compound registered a half-maximal cytotoxic concentration (CC50) in the data set “in vitro [2]” of 162 µM. The selectivity ratio in “in vitro [3]” is 9.7; in “in vitro [4]” it was 10.8.
Take `O=C(c1ccc(Cl)c(Cl)c1)N1CCCC2=C[C@H]3C[C@H](CN4CCCC[C@H]34)[C@@H]21`: the pEC50 in the data set on Ebolavirus was 4.31; with Marburgvirus, 4.09; in data set [1], 4.01. The same compound yielded a CC50 in “in vitro [2]” of 200 µM. Also, the selectivity ratio in the data set “in vitro [3]” came out at 4.1; in “in vitro [4]”, 2.5.
In the case of `Clc1cc(Cl)cc(CCN2CCCC3=C[C@H]4C[C@H](CN5CCCC[C@H]45)[C@@H]32)c1`, the pEC50 with Ebolavirus was 5.24; in data set [1], 4.37. In the data set “in vitro [2]”, the CC50 amounted to 56 µM. The selectivity ratio in “in vitro [3]” turned out to be 9.8.
On to `Clc1cc(Cl)cc(CCCN2CCCC3=C[C@H]4C[C@H](CN5CCCC[C@H]45)[C@@H]32)c1`, for which the values for the pEC50 (with Ebolavirus; in data set [1]) were 5.21 and 4.71, respectively. In “in vitro [2]”, the CC50 is 25.9 µM. In the data set “in vitro [3]”, the selectivity ratio was 4.2.
As to `Clc1ccc(CCCN2CCCC3=C[C@H]4C[C@H](CN5CCCC[C@H]45)[C@@H]32)cc1Cl`, the pEC50 is 5.24 with Ebolavirus and 4.64 in data set [1]. In the data set “in vitro [2]”, the CC50 worked out at 29.3 µM. The selectivity ratio in the data set “in vitro [3]” turned out to be 5.
Consider `O=C(c1cc(Cl)cc(Cl)c1)N1CCCC2=C[C@H]3C[C@H](CN4CCCC[C@H]34)[C@@H]21`, for which the negative logarithm of the EC50 (pEC50) was 4.40 in the data set with Ebolavirus, 4.45 in the data set on Marburgvirus and under 3.70 in data set [1]. Besides, in the data set “in vitro [2]”, the CC50 is over 200 µM. The selectivity ratio in the data set “in vitro [3]” was over 5; in the data set “in vitro [4]”, over 5.7.
As for `O=S(=O)(c1ccc(Cl)cc1)N1CCCC2=C[C@H]3C[C@H](CN4CCCC[C@H]34)[C@@H]21`, the negative-log EC50 (pEC50) is 4.66 in the data set with Ebolavirus, 4.73 with Marburgvirus and 3.98 in data set [1]. This compound also came in with a CC50 in “in vitro [2]” of over 200 µM. For the same compound, the selectivity ratio in “in vitro [3]” was over 9.2; in the data set “in vitro [4]” it was over 10.6.
With `C1=C2CCCN[C@H]2[C@@H]2C[C@H]1[C@H]1CCCCN1C2`, the pEC50 in the data set with Ebolavirus was 4.91; in the data set on Marburgvirus, 4.99; in data set [1], 3.99. The same compound showed a CC50 in “in vitro [2]” of over 200 µM. Also, the selectivity ratio in the data set “in vitro [3]” is over 16.1; in “in vitro [4]”, over 19.6.
As to `C1=C2CCCN(Cc3ccccc3)[C@H]2[C@@H]2C[C@H]1[C@H]1CCCCN1C2`, the pEC50 with Ebolavirus was 4.82; in the data set with Marburgvirus, 4.66; in data set [1] it was 4.55. The cytotoxic concentration (CC50) in “in vitro [2]” was 168 µM. Besides, the selectivity ratio came to 11 in “in vitro [3]” and 7.6 in “in vitro [4]”.
Regarding `O=C(c1ccc(Cl)cc1)N1CCCC2=C[C@H]3C[C@H](CN4CCCC[C@H]34)[C@@H]21`, the pEC50 in the data set on Ebolavirus is 4.47; in the data set on Marburgvirus, 3.95; in data set [1], 4.05. This compound also came in with a CC50 in “in vitro [2]” of over 200 µM. Besides, the selectivity ratio in “in vitro [3]” is over 5.9; in “in vitro [4]” it was over 1.8.
Consider `Clc1ccc(CN2CCCC3=C[C@H]4C[C@H](CN5CCCC[C@H]45)[C@@H]32)cc1`, for which the negative-log EC50 (pEC50) was 4.92 in the data set with Ebolavirus, 5.01 in the data set with Marburgvirus and 4.11 in data set [1]. The same compound showed a CC50 in “in vitro [2]” of over 200 µM. Also, the selectivity ratio in “in vitro [3]” is over 16.8; in “in vitro [4]” it was over 20.4.
In the case of `Clc1ccc(CCN2CCCC3=C[C@H]4C[C@H](CN5CCCC[C@H]45)[C@@H]32)cc1`, the values for the pEC50 (in the data set with Ebolavirus; in data set [1]) were 5.22 and 4.28, respectively. The CC50 in “in vitro [2]” is 83.3 µM. In “in vitro [3]”, the selectivity ratio came out at 13.9.
Regarding `Fc1ccc(CN2CCCC3=C[C@H]4C[C@H](CN5CCCC[C@H]45)[C@@H]32)cc1`, the pEC50 with Ebolavirus was 4.77; in the data set with Marburgvirus, 4.67; in data set [1], 3.97. The same compound yielded a CC50 in the data set “in vitro [2]” of over 200 µM. The selectivity ratio was over 11.8 in “in vitro [3]” and over 9.3 in the data set “in vitro [4]”.
`O=S(=O)(c1cccs1)N1CCCC2=C[C@H]3C[C@H](CN4CCCC[C@H]34)[C@@H]21`: the pEC50 in the data set with Ebolavirus is 4.48; in the data set on Marburgvirus it was 4.20; in data set [1], under 3.70. The CC50 in “in vitro [2]” was over 200 µM. The selectivity ratio in “in vitro [3]” was over 6; in “in vitro [4]” it was over 3.2.
On to `FC(F)(F)Oc1ccc(CN2CCCC3=C[C@H]4C[C@H](CN5CCCC[C@H]45)[C@@H]32)cc1`, for which the pEC50 was 4.98 in the data set with Ebolavirus, 4.92 in the data set with Marburgvirus and 4.65 in data set [1]. This compound also gave a half-maximal cytotoxic concentration (CC50) in the data set “in vitro [2]” of 82 µM. Also, the selectivity ratio in the data set “in vitro [3]” came out at 7.9; in “in vitro [4]”, 6.9.
Consider `N#Cc1cccc(S(=O)(=O)N2CCCC3=C[C@H]4C[C@H](CN5CCCC[C@H]45)[C@@H]32)c1`, for which the pEC50 in the data set on Ebolavirus is 4.16; in the data set on Marburgvirus, 4.15; in data set [1] it was under 3.70. For the same compound, the CC50 in the data set “in vitro [2]” is over 200 µM. The selectivity ratio is over 2.9 in the data set “in vitro [3]” and over 2.8 in “in vitro [4]”.
Regarding `O=S(=O)(c1cc(Cl)cc(Cl)c1)N1CCCC2=C[C@H]3C[C@H](CN4CCCC[C@H]34)[C@@H]21`, the negative-log EC50 (pEC50) is 4.97 in the data set with Ebolavirus, 4.57 with Marburgvirus and 4.50 in data set [1]. Moreover, in “in vitro [2]”, the CC50 was over 200 µM. Besides, the selectivity ratio in “in vitro [3]” is over 18.9; in “in vitro [4]”, over 7.4.
Consider `Clc1ccc(CCCN2CCCC3=C[C@H]4C[C@H](CN5CCCC[C@H]45)[C@@H]32)cc1`, for which the pEC50 is 5.15 with Ebolavirus and 4.30 in data set [1]. Further, in “in vitro [2]”, half-maximal cytotoxicity (CC50) was put at 74.1 µM. Moreover, in “in vitro [3]”, the selectivity ratio came to 10.4.
Regarding `O=S(=O)(c1ccc(Cl)c(Cl)c1)N1CCCC2=C[C@H]3C[C@H](CN4CCCC[C@H]34)[C@@H]21`, the pEC50 in the data set on Ebolavirus is 4.62; with Marburgvirus, 4.98; in data set [1], 4.34. The CC50 in “in vitro [2]” is over 200 µM. Moreover, the selectivity ratio in the data set “in vitro [3]” was over 8.3; in “in vitro [4]” it was over 19.
